Two compounds from patent US9023853B2, “Janus kinase 2 (JAK2) inhibitor for the treatment of lupus” (Cephalon, Inc., priority 2010, dated 2015) can be followed below.

Format in all cases: in vivo, mouse
In one test the test system is MRL/lpr mice. In words: Renal histopathology kidney IC-GN scoring in MRL/lpr mice. As to conditions: MRL/lpr kidney score (grade 0-5), mean; Dex 1.5 mg/kg. How it is done:
Kidney stains used for histological analyses included hematoxylin and eosin (H&E), Periodic Acid Schiff (PAS) and Trichrome stains (Wistar Institute, Philadelphia, Pa.). All 3 stained sections were used by the pathologist for scoring purposes. All histological scoring was performed blinded and by an independent board certified veterinary medical pathologist (Julie […]; University of Pennsylvania). Multiple stains were used to determine score values. Images in FIGS. 8, 19 and 20 show worst affected area of section selected blindly by the pathologist. Kidney IC-GN Scoring Method (Smith, Dong et al. 2007): 1. Glomerular cellularity-Score 1-5: Null, low, moderate, high, severe […] Glomerular necrosis-Score 1-5: Null, low, moderate, high, severe […] Glomerulosclerosis-Score 1-5: Null, low, moderate, high, severe […] Null, low, moderate, high, severe 5. […] Null, low, moderate, high, severe 6. […] Null, low, moderate, high, severe 7. […] Null, low, moderate, high, severe Specific Pathologist Definitions: • Necrosis was defined by the presence of nuclear debris/pyknosis within the glomerular tuft indicative of “necrosis.” In many samples, this was a very mild, rare finding within only a very few segments of the glomerular tuft. Also considered effacement of the glomerular tuft by PAS positive, Trichrome negative material necrosis. • Glomerular sclerosis was defined by increased fibroplasia or fibrosis within the glomerular tuft or capsule. […] Most of the vascular changes were mild and could be considered “arteriosclerosis” characterized by proliferation of the smooth muscle cells, and hyalinization of the extracellular matrix. This change may reflect hypertension secondary to glomerular pathology. In very few animals was there overt “vasculitis.” Most inflammatory changes were within the walls of the blood vessels, with little to no damage to the endothelium, and no overt hemorrhage/fibrin leakage. Many also have perivascular rims of fibroblasts. […] Mice were tracked on an individual basis.

In the next test the test system is NZM mice. Description: Renal histopathology kidney IC-GN scoring in NZM mice. Particulars: for B: Glomerular Cellularity / C: Glomerular Necrosis / D: Glomerular Sclerosis / E: Interstitial Infiltration / F: Tubular Atrophy / G: Interstitial Fibrosis / H: Vasculitis: NZM individual mouse; for Glomerular Cellularity / Glomerular Necrosis / Glomerulosclerosis / Interstitial Fibrosis / Interstitial Infiltration / Tubular Atrophy / Vasculitis: NZM kidney score (grade 0-5), mean. How it is done:
For histological analyses, the left kidney and lung (NZM model only) from each animal was removed and fixed in 10% buffered neutral 10% formalin (EMD) for 48 hours on an orbital rocker at 25° C., then washed overnight with running dH2O and stored in 70% ethanol at 4° C. until ready to be processed. Kidney stains used for histological analyses included hematoxylin and eosin (H&E), Periodic Acid Schiff (PAS) and Trichrome stains (Wistar Institute, Philadelphia, Pa.). All 3 stained sections were used by the pathologist for scoring purposes. All histological scoring was performed blinded and by an independent board certified veterinary medical pathologist (Julie Engiles, VMD, DACVP; University of Pennsylvania). Multiple stains were used to determine score values. Images in FIGS. 8, 19 and 20 show worst affected area of section selected blindly by the pathologist.
Kidney IC-GN Scoring Method (Smith, Dong et al. 2007):
1. […]
2. […]
3. […]
4. […]
5. […]
6. […]
7. […]
Also considered effacement of the glomerular tuft by PAS positive, Trichrome negative material necrosis. • Glomerular sclerosis was defined by increased fibroplasia or fibrosis within the glomerular tuft or capsule. […] Pharmacodynamic (PD) Analysis
(§1) Age mated, female, NZM or NZW/LacJ, mice were matured for the study of lupus nephritis for a total of 7 months or 210 days at which time urine was collected for proteinuria detection. Mice with 0.5-1.0 mg/ml of urine protein as determined by an optical density-based total protein precipitation assay and cross-checked for 30-300 mg/dl of protein as determined by a stick assay were considered proteinuria positive and selected for study entry. Groups were normalized to contain a Gaussian distribution of proteinuria positive animals (i.e., ⅓ low proteinuria, ⅓ medium, ⅓ high) then randomized between groups before ear marking and taking baseline measures including urine and serum collections. A total of five mice from the total population were randomly selected for baseline kidney histology evaluation. Treatments and tests for each group are as described in FIG. 12. Briefly, with a minimum of 10 mice per group, COMPOUND A was administered at 100 mg/kg or 55 mg/kg, both twice a day and orally. […] Vehicle included 3% DMSO, 10% Solutol and 87% PBS. […] End-stage lupus nephritis was evaluated by histopathology and scored by a board certified pathologist for the assessment of total renal damage in diseased animals using the scoring method described by Smith et al (Smith, Dong et al. 2007). […] Day-98 or “end of treatment/study” represents 310 days of age for the NZM animals.

In the next test the test system is IFNα. Description: Serum IFNα at EOS in NZM mice. As to conditions: CTX 50 mg/kg once weekly ip. How it is done:
as §1

Molecules are shown by their SMILES. Values joined by “and” are separate entries in the source; they are usually repeats but may differ in a detail not shown here. Equal entries are not always repeated. “Also recorded” adds a separate entry of the source.

On to `C[C@@H]1C[C@H]2[C@@H]3CCC4=CC(=O)C=C[C@]4(C)[C@@]3(F)[C@@H](O)C[C@]2(C)[C@@]1(O)C(=O)CO` [Dex, dexamethasone, reference compound], for which, in the test with MRL/lpr mice, the “Glomerular Cellularity” value worked out at 3.00, the “Glomerular Necrosis” value turned out to be 2.00, the Glomerulosclerosis was 2.00 and the “Interstitial Fibrosis” value worked out at 1.20. Moreover, in the test with MRL/lpr mice, the “Interstitial Inflitration” value stood at 1.60, the “Tubular Atrophy” value is given as 1.20 and the Vasculitis came out at 1.40. Also, in the test with NZM mice (Dex 1.5 mpk 3 × wk), the “B: Glomerular Cellularity” value was “++ (‘++’ moderate (3)); also recorded: + (‘+’ mild (2)); also recorded: +++ (‘+++’ high (4))”, the “C: Glomerular Necrosis” value was “++ (‘++’ moderate (3)); also recorded: + (‘+’ mild (2)); also recorded: +++ (‘+++’ high (4))”, the “D: Glomerular Sclerosis” value is listed as “+++ (‘+++’ high (4)); also recorded: − (‘−’ no disease (1)); also recorded: ++ (‘++’ moderate (3)); also recorded: ++++ (‘++++’ severe disease (5))” and the “E: Interstitial Infiltration” value was “++ (‘++’ moderate (3)); also recorded: − (‘−’ no disease (1)); also recorded: +++ (‘+++’ high (4))”. Moreover, in the test on NZM mice (Dex 1.5 mpk 3 × wk), the “F: Tubular Atrophy” value was “+++ (‘+++’ high (4)); also recorded: − (‘−’ no disease (1))”, the “G: Interstitial Fibrosis” value is “+++ (‘+++’ high (4)); also recorded: ++ (‘++’ moderate (3)); also recorded: − (‘−’ no disease (1))” and the “H: Vasculitis” value is reported as “+ (‘+’ mild (2)); also recorded: − (‘−’ no disease (1)); also recorded: +++ (‘+++’ high (4))”. Moreover, in the test on NZM mice (Dex 1.5 mg/kg), the “Glomerular Cellularity” value is 3.0, the “Glomerular Necrosis” value is given as 3.0, the Glomerulosclerosis turned out to be 3.42 and the “Interstitial Fibrosis” value turned out to be 2.71. Further, in the test with NZM mice (Dex 1.5 mg/kg), the “Interstitial Infiltration” value was found to be 2.71, the “Tubular Atrophy” value stood at 3.14 and the Vasculitis was 2.42.

As to `O=P1(N(CCCl)CCCl)NCCCO1` (stereo not drawn) [CTX, cyclophosphamide, reference compound], the “serum IFNα reduction” value in the test on IFNα is “Neither standard of care agent (i.e., CTX or DEX) exhibited a significant reduction”. In addition, in the test with NZM mice (CTX 50 mpk 1 × wk), the “B: Glomerular Cellularity” value is “++ (‘++’ moderate (3)); also recorded: + (‘+’ mild (2)); also recorded: − (‘−’ no disease (1))”; the “C: Glomerular Necrosis” value was “++ (‘++’ moderate (3)) (2×) and − (‘−’ no disease (1)) (3×) and + (‘+’ mild (2)) (3×) and _”; the “D: Glomerular Sclerosis” value is reported as “+++ (‘+++’ high (4)); also recorded: − (‘−’ no disease (1)); also recorded: ++ (‘++’ moderate (3)); also recorded: + (‘+’ mild (2))”; the “E: Interstitial Infiltration” value is “+ (‘+’ mild (2)) (2×) and − (‘−’ no disease (1)) (5×) and +++ (‘+++’ high (4)) and _”. In the test with NZM mice (CTX 50 mpk 1 × wk), the “F: Tubular Atrophy” value is reported as “++++ (‘++++’ severe disease (5)); also recorded: − (‘−’ no disease (1)); also recorded: + (‘+’ mild (2)); also recorded: ++ (‘++’ moderate (3))”, the “G: Interstitial Fibrosis” value is given as “+++ (‘+++’ high (4)); also recorded: − (‘−’ no disease (1)); also recorded: + (‘+’ mild (2))” and the “H: Vasculitis” value is recorded as “+ (‘+’ mild (2)); also recorded: − (‘−’ no disease (1))”. Besides, in the test with NZM mice (CTX 50 mg/kg), the “Glomerular Cellularity” value was determined as 2.0, the “Glomerular Necrosis” value is 1.77, the Glomerulosclerosis is given as 2.11 and the “Interstitial Fibrosis” value turned out to be 1.55. For the same compound, in the test with NZM mice (CTX 50 mg/kg), the “Interstitial Infiltration” value was found to be 1.55, the “Tubular Atrophy” value is 2.00 and the Vasculitis worked out at 1.33.
